US5968479A, “Diagnostic marker” (Daiichi Pure Chemicals Co., Ltd., priority 1995, dated 1999)

Columns and labels:
[1] = Fluorescence spectra of labeling compounds; assay type: physicochemical
Method: Compound 5 (40 mg, 64 μmol) in DMF (1 ml) was added with N-hydroxysuccinic anhydride (8.8 mg, 76 μmol) and N,N'-dicyclohexylcarbodiimide (DCC, 26.4 mg, 0.128 mmol) and the mixture was allowed to react at 4° C. overnight. Ether (10 ml) was added to the reaction mixture and the resulting residue was washed three times with ether. The solid mass was dissolved in chloroform (400 μl), and the solution was added with 0.1M aqueous hydrochloric acid (200 μl) and stirred. Then, the chloroform layer was separated and washed three times with water. The chloroform solution was concentrated under reduced pressure to obtain Compound 6 as black green solid (a labeling compound of the formula (III)) (38 mg, yield 78.5%). MS (FAB) m/e=720(M^+); Fluorescence spectra: λex =769 nm, λem =820 nm (10% DMSO in water).
Compound 5 (20 mg, 32 μmol) in DMF (1 ml) was added with sodium N-hydroxysuccinic anhydride sulfonate (8.3 mg, 38 μmol) and N,N'-dicyclohexylcarbodiimide (13.2 mg, 64 μmol), and the mixture was allowed to react at 4° C. overnight and then filtered. Ether (10 ml) was added to the filtrate and the resulting residue was washed three times with ether. The solid mass was dissolved in […] (400 μl), and the solution was added with 0.1M aqueous hydrochloric acid (200 μl) and stirred. Then, the chloroform layer was separated and washed three times with water. The chloroform solution was concentrated under reduced pressure to obtain Compound 7 as black green solid (labeling compound of the formula (III), 17 mg, yield 66.4%). MS (FAB) m/e=822 (M^+ Na); Fluorescence spectra λex =769 nm, λem =820 nm (10% DMSO in water).
Compound 5 (20 mg, 32 μmol) in DMF (0.5 ml) was added with N-(2-(N'-maleimide)ethyl)piperazine dihydrochloride (PEM, 4.4 mg, 38 μmol), triethylamine (TEA, 20 μl, 0.146 mmol) and DCC (10.2 mg, 49 μmol), and the mixture was allowed to react at 4° C. overnight. Ether (10 ml) was added to the reaction mixture and the resulting residue was washed three times with ether. The solid mass was dissolved in chloroform (400 μl), and the solution was added with 0.1M aqueous hydrochloric acid (200 μl) and stirred. Then, the chloroform layer was separated and washed three times with water. The chloroform solution was concentrated under reduced pressure to obtain Compound 8 as black green solid (labeling compound of the formula (III), 20 mg, yield 70.5%). MS (FAB) m/e=814(M^+); Fluorescence spectra λex =773 nm, λem =821 nm (10% DMSO in water).
Compound 6 (20 mg, 26.4 μmol) in DMF (0.5 ml) was added with hydrazine monohydrochloride (9.0 mg, 0.131 mmol) and the mixture was allowed to react overnight. The reaction mixture was filtered and the filtrate was concentrated under reduced pressure. The residue was dissolved in chloroform (0.5 ml) and the chloroform solution was washed with water three times. The chloroform layer was concentrated under reduced pressure to obtain Compound 9 as black green solid (16 mg, yield 90.0%). MS (FAB) m/e=637(M^+); Fluorescence spectra: λex =771 nm, λem =820 nm (10% DMSO in water).
Compound 12 (30 mg, 41.8 μmol) in a 50 v/v % aqueous solution of THF (1 ml) was added with sodium N-hydroxysuccinic anhydride-sulfonate (16.8 mg, 77.4 μmol) and N,N'-dicyclohexylcarbodiimide (25.8 mg, 0.125 mmol), and the mixture was allowed to react at 4° C. overnight and then filtered. The filtrate was concentrated under reduced pressure at a temperature of 20° C. or less. The residue was added with ethyl acetate (10 ml) and the deposited crystals were further washed with ether three times. These crystals were dissolved in water (200 μl) and purified using a Sephadex LH20 column (eluent: water) to obtain Compound 13 as black green solid (labeling compound of the formula (III), 34 mg, yield 88.8%). MS (FAB) m/e=892(M^-); Fluorescence spectrum λex =771 nm, λem =822 nm (water). […]

[2] = Water solubility of labeling compounds before (zwitterion type) and after (double salt type) salt formation; assay type: physicochemical; details: for solubility: water, zwitterion type
Method: The above-obtained Compound 17 (100 mg, 0.11 mmol) was dissolved in methanol (2 ml) and the solution was added with a solution of sodium iodide (1 g, 6.7 mmol) in methanol (5 ml). The methanol solution was concentrated to a half of the volume and cooled to 4° C. overnight. The precipitated crystals were collected by filtration. The obtained green crystals were dried in a vacuum desiccator to give Compound 18 (labeling compound of the formula (V), 85 mg, yield 72%). Data of water-solubility and infrared absorption spectrum data (IR) were obtained before the formation of the salt with sodium iodide (zwitterion type) and after the salt formation. The iodide content was determined by the Schoniger method.
Indocyanine green-N-butanoic acid sulfosuccinimide ester (Compound 19) was prepared according to the method of Example 3. Compound 19 (150 mg, 0.17 mmol) was dissolved in methanol (3 ml) and the solution was added with a solution of sodium iodide (1.5 g, 10 mmol) in methanol (8 ml). The methanol was concentrated to a half of the volume and the concentrate was cooled to 4° C. overnight. The precipitated crystals were collected by filtration. The obtained green crystals were dried in a vacuum desiccator to give Compound 20 (labeling compound of the formula (V), 117 mg, yield 66%). Data of water-solubility and infrared absorption spectra data (IR) were obtained before and after the salt formation with sodium iodide. Iodine content was determined by the Schoniger method.
Indocyanine green-N-hexanoic acid sulfosuccinimide ester (Compound 21) was prepared according to the method of Example 3. Compound 21 (100 mg, 0.11 mmol) was dissolved in methanol (2 ml) and the solution was added with a solution of sodium perchlorate (0.3 g, 2.5 mmol) in methanol (20 ml). The methanol was concentrated to a quarter of the volume under reduced pressure and the concentrate was cooled to 4° C. overnight. The precipitated crystals were collected by filtration. The obtained green crystals were dried in a vacuum desiccator to give Compound 22 (labeling compound of the formula (V), 23 mg, yield 21%). Data of water-solubility and IR were obtained before and after the salt formation with sodium perchlorate.

SMILES | Fluorescence spectra λem ([1]; 10% DMSO in water) [nm] | Fluorescence spectra λex ([1]; 10% DMSO in water) [nm] | also measured
CC[N+]1=C(C=CC=CC=CC=C2N(CCCCCC(=O)ON3C(=O)CCC3=O)c3ccc4ccccc4c3C2(C)C)C(C)(C)c2c1ccc1ccccc21 [Compound 6] | 820 | 769 | 
CC[N+]1=C(C=CC=CC=CC=C2N(CCCCCC(=O)N3CCN(CCN4C(=O)C=CC4=O)CC3)c3ccc4ccccc4c3C2(C)C)C(C)(C)c2c1ccc1ccccc21 [Compound 8] | 821 | 773 | 
CC1(C)C(=CC=CC=CC=CC2=[N+](CCCS(=O)(=O)[O-])c3ccc4ccccc4c3C2(C)C)N(CCCCCC(=O)ON2C(=O)CC(S(=O)(=O)O)C2=O)c2ccc3ccccc3c21 (stereo not shown) [Compound 13] |  |  | Fluorescence spectra λem ([1]; water): 822 nm; Fluorescence spectra λex ([1]; water): 771 nm
CC1(C)C(=CC=CC=CC=CC2=[N+](CCCCS(=O)(=O)[O-])c3ccc4ccccc4c3C2(C)C)N(CCCCCC(=O)ON2C(=O)CC(S(=O)(=O)O)C2=O)c2ccc3ccccc3c21 (stereo not shown) [Compound 17, indocyanine green-N-hexanoic acid sulfosuccinimide ester] |  |  | Fluorescence spectra λem ([1]; water): 807 nm; Fluorescence spectra λex ([1]; water): 768 nm
CC1(C)C(=CC=CC=CC=CC2=[N+](CCCCS(=O)(=O)[O-])c3ccc4ccccc4c3C2(C)C)N(CCCCCC(=O)ON2C(=O)CC(S(=O)(=O)O)C2=O)c2ccc3ccccc3c21 (stereo not shown) [Compound 18] |  |  | Water solubility ([2]; double salt type (sodium iodide)): 1 mg/0.8 ml
CC1(C)C(=CC=CC=CC=CC2=[N+](CCCCS(=O)(=O)[O-])c3ccc4ccccc4c3C2(C)C)N(CCCC(=O)ON2C(=O)CC(S(=O)(=O)O)C2=O)c2ccc3ccccc3c21 (stereo not shown) [Compound 19, Indocyanine green-N-butanoic acid sulfosuccinimide ester] |  |  | solubility [2]: ≥ 100 µg/mL
CC1(C)C(=CC=CC=CC=CC2=[N+](CCCCS(=O)(=O)[O-])c3ccc4ccccc4c3C2(C)C)N(CCCCCC(=O)ON2C(=O)CC(S(=O)(=O)O)C2=O)c2ccc3ccccc3c21 (stereo not shown) [Compound 21, Indocyanine green-N-hexanoic acid sulfosuccinimide ester] |  |  | solubility [2]: ≥ 100 µg/mL
CC1(C)C(=CC=CC=CC=CC2=[N+](CCCCS(=O)(=O)[O-])c3ccc4ccccc4c3C2(C)C)N(CCCCCC(=O)ON2C(=O)CC(S(=O)(=O)O)C2=O)c2ccc3ccccc3c21 (stereo not shown) [Compound 22] |  |  | Water solubility ([2]; double salt type (sodium perchlorate)): 1 mg/5 ml

Now from value to molecule, other results behind:

Fluorescence spectra λem ([1]; 10% DMSO in water) [nm] | Fluorescence spectra λex ([1]; 10% DMSO in water) [nm] | SMILES | also measured
820 | 769 | CC[N+]1=C(C=CC=CC=CC=C2N(CCCCCC(=O)ON3C(=O)CC(S(=O)(=O)O)C3=O)c3ccc4ccccc4c3C2(C)C)C(C)(C)c2c1ccc1ccccc21 (stereo not shown) [Compound 7] | 
820 | 771 | CC[N+]1=C(C=CC=CC=CC=C2N(CCCCCC(=O)NN)c3ccc4ccccc4c3C2(C)C)C(C)(C)c2c1ccc1ccccc21 [Compound 9] | 
